# Assay results as given in patent publication US12257251B2, “Use of FAK inhibitor in preparation of drug for treating tumors having NRAS mutation” (INXMED (NANJING) CO., LTD., priority 2019, dated 2025).
# Read-outs that look alike come from different tables or passages of the source.
# Legend:
# [1] = test system: HT-1080 cells carrying NRAS, CDKN2A and IDH1 gene mutations; assay: Mouse model of human fibrosarcoma (cell line HT-1080), subcutaneous tumors: tumor growth; assay type: in vivo; settings: for Median tumor volume: day 13; for TGI: day 1 to day 13, from median tumor volumes; for Tumor shrinkage [X/7]: number of animals of 7 with tumor shrinkage
# Method: • 1. Materials and Method: • 1.1. Design of Research • Treatment began when the median tumor volume was between 70-130 mm^3. • 10 mice in the control group, and 7 mice in the treatment group. • Oral gavage once daily. • Control: 0.5% hydroxyethyl cellulose • BI 853520: 50 mg/kg, 25 mg/kg, 12.5 mg/kg, 6 mg/kg, • Tumor volume was measured 3 times a week and body weight was monitored daily. • Evaluation of treatment outcome was based on absolute volume of individual tumors. • Tolerability was assessed based on changes in body weight.
# BI853520: synthesized according to the method in the patent WO2010058032. The dry powder was suspended in 0.5% hydroxyethyl cellulose to obtain the desired concentration for each assay. The pH of this formulation was 3.5.
# HT-1080 cells: HT-1080 cells carrying NRAS, CDKN2A and IDH1 gene mutations were obtained from ATCC (CRL-121). Cells were grown in T175 tissue culture flasks with DMEM+Glutamax supplemented with 10% heat-inactivated fetal bovine serum as medium. Cells were cultured at 37° C. and 5% CO2 in humidified air.
# Mice: Athymic female BomTac, approximately 6-week-old NMRI-Foxn1^nu mice were purchased from Taconic, Denmark. After arriving in the animal room, mice were acclimated to the new environment for at least 3 days before being used for assay. The animals were housed under standard conditions (temperature 21.5±1.5° C. and 55±10% humidity) with 5 mice in each group. A standard diet and autoclaved tap water were provided for ad libitum feeding. A Datamars® T-IS 8010 FDX-B transponder implanted subcutaneously in the neck region and a LabMax® II fixed reader were used to identify each mouse.
# To establish subcutaneous tumors, HT-1080 cells were harvested by trypsinization, centrifuged, washed and suspended in ice-cold PBS+1×10^8 cells/ml. Then 100 μl of cell suspension containing 1×10^7 cells was injected subcutaneously into the right flank of nude mice (1 site per mouse). When tumors were established and reached a diameter of 5-8 mm (7 days after cell injection), mice were randomly assigned to the treatment group and the control group.
# BI853520 was suspended in 0.5% hydroxyethyl cellulose, which was administered intragastrically through gavage needle every day, and the dosage was 10 mL/Kg.
# Tumor diameters were measured with calipers three times a week (Monday, Wednesday, and Friday). The volume of each tumor [in mm^3] was calculated according to the equation, “tumor volume=length×diameter^2×π/6”. To monitor the side effects of the treatment, the mice were checked daily for abnormalities and their body weights were measured daily. Animals were sacrificed at the end of the study (approximately two weeks after the start of treatment). During the study, animals with tumor necrosis or tumors larger than 2000 mm^3 were sacrificed ahead of schedule for ethical reasons.
# At the end of the assay on day 13, statistical evaluation of tumor volume and body weight parameters was performed. Absolute tumor volume and percent change in body weight (referenced to initial weight on day 1) were used. A nonparametric approach was used, and the number of observations, median, minimum and maximum values were calculated. For a quick overview of possible treatment effects, the median tumor volume for each treatment group T and the median tumor volume for the control group C were used to calculate the TGI from day 1 to day d: TGI=100×[(Cd−C1)−(Td−T1)]/(Cd−C1) • wherein, C1, T1=median tumor volume in control and treatment groups at the start of the assay (day 1). • Cd, Td=median tumor volume in control and treatment groups at the end of the assay (day 13).
# Each dose of test compound was compared to the control group using a one-sided descending wilcoxon test, taking reduction in tumor volume as a treatment effect and weight loss as a side effect. […]
# [2] = test system: 37 different tumors (human tumor CDX); settings: across CDX models of 37 different tumors; cited from earlier work
# [3] = test system: Ba/F3-NRAS^G12D cell line; assay: Antiproliferative test (CellTiter Glo, 48 hours) in NRAS^G12D-transfected Ba/F3 cells; assay type: cell-based, murine; settings: for IC50: Mus musculus
# Method: The Ba/F3 cell line was obtained from ATCC in 2009, and cultured according to a method described in Zhang X Ren R. Bcr-abl efficiently induces a myeloproliferative disease and production of excess interleukin-3 and granulocyte-macrophage colony-stimulating factor in mice: A novel model for chronic myelogenous leukemia. Blood., 1998, 92: 3829-40. Growth factor-dependent BA/F3 cells were cultured in RPMI 1640 including 10% FBS and supplemented with 15% WEHI-3 conditioned medium or recombinant IL-3 (Roche) as a source of IL-3 at a final concentration of 1 ng/ml. […] Cancer Res., 2007, 67: 7139-46 and Fredericks J, Ren R. The role of RAS effectors in BCRIABL induced chronic myelogenous leukemia. Front Med China., 2013, 7: 452-61. Upon receipt of the original stock, cells were expanded and frozen at a low passage rate (<3). Frozen cells were thawed and used in this study, with cell passages limited to 15 for all experimental procedures. All cells were tested regularly to ensure freedom and maintenance in a normal state of mycoplasma.
# NRAS^G12D-transfected Ba/F3 (Ba/F3-N) or KRAS^G12D-transfected Ba/F3 ([…]) cells were seeded into 96-well cell culture cluster plate in 100 μL of medium at a density of 5,000 cells per well. BI853520 was diluted 3-fold with RPMI 1640 at 9 points, and added according to the volume of each well, starting at 10 μmol/L to reach a 3-fold concentration gradient (final solvent concentration <1/1000). PD0325901 was used as a positive control. After 48 hours of incubation, cell viability was measured using CellTiter Glo (Promega). Luminescence was detected using an Envision plate reader (PerkinElmer). The calculation method of Z factor was as described in Zhang J H, Chung T D Y, Oldenburg K R. A simple statistical parameter for use in evaluation and validation of high throughput screening assays. J Biomol Screen., 1999, 4: 67-73, and the following analysis only used data with Z factor >0.6. […]
compound,measurement,setting,value
COc1cc(C(=O)NC2CCN(C)CC2)c(F)cc1Nc1ncc(C(F)(F)F)c(Oc2cccc3c2C(=O)N(C)C3)n1 [BI853520],Median tumor volume,[1]; 6 mg/kg qd oral gavage,322 mm^3
same,TGI,[1]; 6 mg/kg qd,70%
same,Tumor shrinkage [X/7],[1]; 6 mg/kg qd,1 X/7
same,Median tumor volume,[1]; 12.5 mg/kg qd oral gavage,149 mm^3
same,TGI,[1]; 12.5 mg/kg qd,94%
same,Tumor shrinkage [X/7],[1]; 12.5 mg/kg qd,2 X/7
same,Median tumor volume,[1]; 25 mg/kg qd oral gavage,15 mm^3
same,TGI,[1]; 25 mg/kg qd,113%
same,Tumor shrinkage [X/7],[1]; 25 mg/kg qd,6 X/7
same,TGI,[1]; 50 mg/kg qd,107%
same,Antitumor activity (in words),[1]; all dose levels (6 to 50 mg/kg qd),statistically significant antitumor activity
same,Regression (in words),[1]; all the treatment groups (6 to 50 mg/kg qd),regression was observed
same,TGI (tumor growth inhibition) span,[2],0 to 107%
same,Increase of IC50 after addition of IL-3,[3]; + IL-3 versus − IL-3,more than 4 fold
same,IC50,"[3]; BaF3, after addition of IL-3, 48 hours, read-out: IC50 (antiproliferative effect), + IL-3",15 µM
same,IC50,"[3]; BaF3, without IL-3, 48 hours, read-out: IC50 (antiproliferative effect), − IL-3",3.4 µM
